# Where “and” joins values, the source holds several entries; their conditions need not be identical. Equal entries are not always repeated.
# Columns and labels:
# Type in all cases: functional, Homo sapiens
# Parameters in all cases: dose or concentration left out as unconfirmed
# [1] = tested on: Colon cancer organoid; experiment: Image-based profiling of donated chemical probes and chemogenomic kinase set in O06 CRC organoid. Image analysis is performed on the sum area metric, and the data were normalized to the DMSO control. After imaging the organoid viability is measured using the OneGloEX Luciferase Assay System. The normalized viability data and sum area are reported.
# [2] = tested on: Colon cancer organoid; experiment: Image-based profiling of donated chemical probes and chemogenomic kinase set in O09 CRC organoid. Image analysis is performed on the sum area metric, and the data were normalized to the DMSO control. After imaging the organoid viability is measured using the OneGloEX Luciferase Assay System. The normalized viability data and sum area are reported.
# [3] = tested on: Colon cancer organoid; experiment: Image-based profiling of donated chemical probes and chemogenomic kinase set in O21 CRC organoid. Image analysis is performed on the sum area metric, and the data were normalized to the DMSO control. After imaging the organoid viability is measured using the OneGloEX Luciferase Assay System. The normalized viability data and sum area are reported.
SMILES,Cell Viability ([1]; Replication number 1),Cell Viability ([1]; Replication number 2),Cell Viability ([2]; Replication number 1),Cell Viability ([2]; Replication number 2),Cell Viability ([3]; Replication number 1),Cell Viability ([3]; Replication number 2)
C=CC(=O)Nc1ccc2[nH]c(=O)n(C3CCN(Cc4ccc(-c5nc6cc[nH]c(=O)c6cc5-c5ccccc5)cc4)CC3)c2c1 [Borussertib],53.8202% and 93.0364%,55.5643% and 106.199%,27.7912% and 48.9559%,42.376% and 51.9429%,72.0097% and 96.5806%,66.1245% and 78.518%
Cc1ccc(C(=O)Nc2cccc(C(F)(F)F)c2)cc1Nc1nc(-c2cccnc2)nc2c1cnn2C,111.788% and 111.949%,93.5249% and 94.6015%,119.681% and 88.2655%,229.025% and 116.079%,58.179% and 60.2091%,55.1529% and 56.0201%
CCc1cc(Nc2nccc(-c3c(-c4ccc(OC)c(C(=O)Nc5c(F)cccc5F)c4)nc4ccccn34)n2)c(OC)cc1N1CCC(N2CCN(S(C)(=O)=O)CC2)CC1,105.005% and 109.946%,148.394% and 109.614%,134.446% and 100.483%,134.446% and 126.607%,80.3348% and 98.676%,124.058% and 123.21%
CNc1nc(-c2ccc3c(N)n[nH]c3c2)cc(N2C[C@@H](C(=O)NC3CCCCC3)CC[C@H]2C)n1,59.7664% and 83.0769%,75.2742% and 90.8217%,19.6659% and 24.7593%,39.1039% and 41.4354%,64.6112% and 105.857%,53.2272% and 96.363%
Cc1ncsc1-c1ccc(CNC(=O)[C@@H]2C[C@@H](O)CN2C(=O)[C@@H](NC(=O)CCCCNC(=O)c2ccc(-c3ccc(N4CCN(C)CC4)c(NC(=O)c4c[nH]c(=O)cc4C(F)(F)F)c3)cc2)C(C)(C)C)cc1,127.591% and 97.9274%,138.236% and 103.65%,189.737% and 102.727%,128.896% and 122.558%,88.0354% and 100.906%,93.0619% and 103.634%
Cc1cc(C)cc([C@@H]2c3cc(C)ccc3NC(=O)CN2C(=O)c2ccc(Br)s2)c1,111.534% and 83.1141%,141.021% and 89.6176%,106.396% and 98.9954%,263.199% and 111.182%,115.521% and 108.165%,94.8359% and 62.8282%
CN(C)c1ncnc(-c2ccc3nc(Nc4cc(CN5CCN(C(=O)CC(F)(F)F)CC5)ccn4)[nH]c3c2)c1Cl [BAY-440],91.3612% and 98.3607%,93.5115% and 120.107%,134.702% and 130.21%,215.997% and 118.583%,107.586% and 105.951%,93.8566% and 87.7551%
N#Cc1cnc(Nc2cc(NC[C@H]3CNCCO3)c(C(F)(F)F)cn2)cn1 [SRA-737],47.9437% and 94.589%,63.1754% and 83.4961%,93.3475% and 86.0215%,90.1274% and 73.6966%,21.4207% and 61.8815%,26.4159% and 74.8471%
CNCCN1CCC(c2cc(CN(C)C(=O)c3cccc(Oc4ccccc4)c3)ccn2)CC1,160.666% and 144%,179.321% and 118.056%,65.766% and 84.3895%,110.837% and 98.923%,118.858% and 106.989%,108.266% and 112.768%
CCc1ccccc1C(=O)Nc1n[nH]c2c(C)c(F)c(C3C(C#N)=C(C)N(C)C(C)=C3C#N)cc12 [BAY-3827],111.052% and 125.293%,118.254% and 98.7859%,62.8379% and 77.8869%,39.4727% and 62.2125%,104.538% and 100.129%,99.5085% and 100.51%
COc1cccc2c1c(O)c(C(=O)N(C)c1ccc(C(F)(F)F)cc1)c(=O)n2C [TASQUINIMOD],48.5879% and 75.1409%,109.678% and 108.736%,111.782% and 95.2859%,96.4426% and 87.5198%,88.1859% and 108.165%,81.4636% and 102.566%
CCn1c(-c2nc3cc(C(=O)N4CCCC(N)C4)ccc3n2C)cc2ccccc21.Cl (stereo not given),210.545% and 138.685%,140.649% and 97.743%,117.35% and 104.328%,180.446% and 129.427%,104.488% and 105.813%,105.345% and 85.3819%
CCCOc1ccn2c(C(C)=O)cc(-c3cccc(OC)c3)c2c1,185.69% and 133.611%,217.677% and 137.175%,257.79% and 103.4%,158.474% and 115.458%,114.752% and 106.401%,123.226% and 102.029%
C[C@@H](c1cccc(C#N)c1)n1cc(Cl)cc(C(N)=O)c1=N.Cl,94.9066% and 108.826%,100.434% and 114.368%,93.1286% and 91.7219%,106.099% and 101.903%,94.9994% and 100.946%,88.3604% and 82.5969%
O=C(O)CNC(=O)c1c(O)c2ccccc2n(Cc2ccccc2)c1=O,94.9232% and 53.396%,101.3% and 76.2347%,105.314% and 91.1128%,142.9% and 106.905%,116.47% and 93.4683%,109.318% and 89.1408%
Nc1ncnc2c1ccn2[C@@H]1O[C@H]([C@H](O)c2ccccc2)[C@@H](O)[C@H]1O,27.0632% and 78.2819%,,67.0274% and 58.6553%,77.7398% and 60.4371%,74.1764% and 78.772%,70.798% and 78.401%
Cc1ccc2[nH]c(CNCCCc3ccncc3)cc(=O)c2c1 [UCSF924NC],91.5293% and 106.883%,122.187% and 128.063%,130.653% and 96.5987%,94.8728% and 93.7748%,94.0995% and 104.765%,78.5864% and 74.4392%
O=C(NC[C@H](O)CN1CCc2ccccc2C1)c1ccnc(NC2CCC2)c1,27.5023% and 69.1007%,41.1138% and 71.2161%,64.9401% and 74.8841%,97.6148% and 75.2613%,82.4125% and 78.1842%,61.8775% and 72.494%
CNC(=O)Nc1ccc(-c2nc(N3CC4CCC(C3)O4)c3cnn(C4CCC5(CC4)OCCO5)c3n2)cc1,5.405% and 12.6193%,4.979% and 10.7558%,16.963% and 8.004%,13.8845% and 13.3086%,32.2778% and 51.8467%,33.537% and 47.4991%
CCOc1cc(N2CCC(O)CC2)ccc1Nc1ncc2c(n1)N(C1CCCC1)CCC(=O)N2C,54.2917% and 71.4425%,45.2272% and 91.5167%,71.8666% and 49.1195%,54.8924% and 49.401%,101.764% and 118.746%,133.409% and 125.513%
C[C@@H]1CCN(C(=O)CC#N)C[C@@H]1N(C)c1ncnc2[nH]ccc12.O=C(O)CC(O)(CC(=O)O)C(=O)O [TOFACITINIB CITRATE],54.8894% and 73.0004%,74.5746% and 82.0566%,230.679% and 101.979%,85.7625% and 94.2129%,116.988% and 133.24%,108.318% and 111.695%

# — ChEMBL document CHEMBL5724558, “Image-based profiling of drug vulnerabilities in CRC organoids” (2024)
